Here are results for 44 molecules from patent US20260365627A1, “NOVEL ECTONUCLEOTIDE PYROPHOSPHATASE / PHOSPHODIESTERASE 1 (ENPP-1) INHIBITORS AND USES THEREOF” (SRAVATHI AI TECHNOLOGY PRIVATE LIMITED, priority 2022, published 2026).

In general, IC50 refers to the concentration that inhibits the measured activity by half.

Bounds are passed on as bounds.

The first test addresses T1, Human ENPP-1 (Homo sapiens, UniProt P22413).
T1 sequence (P22413 1-925): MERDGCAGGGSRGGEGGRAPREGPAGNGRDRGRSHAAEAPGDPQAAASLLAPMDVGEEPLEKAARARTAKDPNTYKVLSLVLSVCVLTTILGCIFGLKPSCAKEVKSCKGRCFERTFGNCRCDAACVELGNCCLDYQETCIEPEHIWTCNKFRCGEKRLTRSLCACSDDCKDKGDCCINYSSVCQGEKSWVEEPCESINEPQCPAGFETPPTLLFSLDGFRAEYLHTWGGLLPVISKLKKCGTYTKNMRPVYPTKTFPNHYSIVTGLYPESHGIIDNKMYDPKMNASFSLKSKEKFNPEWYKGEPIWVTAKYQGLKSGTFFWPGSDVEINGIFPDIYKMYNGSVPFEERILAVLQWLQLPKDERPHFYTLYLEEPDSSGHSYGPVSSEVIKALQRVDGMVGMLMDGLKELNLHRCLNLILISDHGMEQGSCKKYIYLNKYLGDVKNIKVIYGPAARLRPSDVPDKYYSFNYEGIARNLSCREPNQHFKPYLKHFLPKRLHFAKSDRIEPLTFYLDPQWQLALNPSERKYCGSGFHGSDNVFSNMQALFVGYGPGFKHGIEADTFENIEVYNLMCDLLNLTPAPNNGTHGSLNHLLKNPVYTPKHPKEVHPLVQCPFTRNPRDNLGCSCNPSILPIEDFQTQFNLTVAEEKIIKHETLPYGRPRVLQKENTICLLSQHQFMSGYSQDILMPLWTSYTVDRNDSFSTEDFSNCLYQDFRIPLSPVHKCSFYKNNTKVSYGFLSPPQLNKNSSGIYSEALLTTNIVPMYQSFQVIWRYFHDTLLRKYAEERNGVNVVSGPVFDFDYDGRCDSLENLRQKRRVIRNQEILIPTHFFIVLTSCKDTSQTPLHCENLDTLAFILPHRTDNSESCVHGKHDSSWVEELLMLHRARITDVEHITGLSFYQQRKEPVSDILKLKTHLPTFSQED
The experiment in a line: ENPP-1 Inhibition Assay (cGAMP substrate, AMP Glo luminescence). It is filed as biochemical. As to conditions: Human ENPP-1 3 nM, 5 μM cGAMP, pH 7.4, 40 μM HSA, RT 3 hrs; read-out: IC50 values of compounds of the invention, 0.1-1 uM. The method, then:
Assay method: Human ENPP-1 at 3 nM prepared in pH 7.4 was incubated with 5 μM cGAMP substrate with the test samples prepared in buffer with pH 7.4 along with 40 μM HSA. The reaction was incubated at RT for 3 hrs. Post incubation, the reaction was stopped by heating the contents at 95 °C for 10 mins. 10 μl of the solution was added to 384-well plate to which 10 μl of AMP Glo reagent-1 was added and incubated for 60 mins at 25 °C. After the incubation, 20 μl of AMP detection solution was added to each well with the enzyme reaction and incubated for 60 mins at 25 °C. The luminescence signal (RLU) was recorded using SpectraMax I3X plate reader.
The luminescence signal is measured as a function of concentration of the inhibitor. If the inhibitor molecule is active, as the concentration of the inhibitor increases, the luminescence value (referred to as OD) decreases. % Inhibition is then calculated as
% Inhibition=((OD of Control−OD of sample)/OD of Control)×100
In this disclosure, the IC50 value of an inhibitor molecule is measured as the concentration of inhibitor which inhibits growth of 50% of the human ENPP-1. A graph of inhibitor concentration on X-axis vs. percentage inhibition on Y-axis is drawn and the […] is measured as the IC50 value.
On to `COc1cc2ncnc(N=S(C)(=O)c3ccc(NC(N)=S)cc3)c2cc1OC` (stereo not drawn) [SAPTI012S007], for which the IC50 lay within 0.1 to 1 µM. On the same count and under the same terms, in the case of `COc1cc2ncnc(N=S(C)(=O)c3cccc(NS(N)(=O)=O)c3)c2cc1OC` (stereo not drawn) [SAPTI012S010] it was 0.1 to 1 µM; in that of `COc1cc2ncnc(N=S(C)(=O)c3cccc(N(C)C(N)=O)c3)c2cc1OC` (stereo not drawn) [SAPTI012S012], 0.1 to 1 µM. Still for that read-out and setting: in the case of `COc1cc2ncnc(N=S(C)(=O)c3ccc(C(=O)O)cc3)c2cc1OC` (stereo not drawn) [SAPTI012S014] it was 0.1 to 1 µM.

Turning to `COc1cc2ncnc(N=S(C)(=O)c3cccc(C(N)=O)c3)c2cc1OC` (stereo not drawn) [SAPTI012S022], the IC50 is 0.1 to 1 µM. As for `COc1cc2ncnc(N=S(C)(=O)c3ccc(CCP(=O)(O)O)cc3)c2cc1OC` (stereo not drawn) [SAPTI012S025], the IC50 is 0.1 to 1 µM. Still for that read-out and setting: in the case of `COc1cc2ncnc(N=S(=O)(c3cccc(NC(N)=O)c3)C3CC3)c2cc1OC` (stereo not drawn) [SAPTI012S032] it was 0.1 to 1 µM. With `COc1cc2ncnc(N=S(=O)(c3ccccc3)c3ccc(NC(N)=O)cc3)c2cc1OC` (stereo not drawn) [SAPTI012S034], the IC50 was 0.1 to 1 µM. Take `COc1cccc2c(N=S(C)(=O)c3ccc(B(O)O)cc3)ncnc12` (stereo not drawn) [SAPTI012S035]: the concentration for half-maximal inhibition (IC50) fell in the range of 0.1 to 1 µM.

Still in this test, the particulars now being: Human ENPP-1 3 nM, 5 μM cGAMP, pH 7.4, 40 μM HSA, RT 3 hrs; read-out: IC50 values of compounds of the invention, 1-10 uM.
Consider `COc1cc2ncnc(N=S(C)(=O)c3ccc(P(=O)(O)O)cc3)c2cc1OC` (stereo not drawn) [SAPTI012S001], for which the 50% inhibitory concentration (IC50) was in the range of 1 to 10 µM. For `COc1cc2ncnc(N=S(C)(=O)c3cccc(P(=O)(O)O)c3)c2cc1OC` (stereo not drawn) [SAPTI012S002], the IC50 was in the range of 1 to 10 µM.

For `COc1cccc2c(N=S(C)(=O)c3cccc(N(C)C(N)=O)c3)ncnc12` (stereo not drawn) [SAPTI012S013], the IC50 fell in the range of 1 to 10 µM.

As for `COc1cc2nccc(N=S(C)(=O)c3ccc(C(N)=O)cc3)c2cc1OC` (stereo not drawn) [SAPTI012S018], the concentration for half-maximal inhibition (IC50) lay in the range of 1 to 10 µM. For `Cn1ccc2c(N=S(C)(=O)c3ccc(C(N)=O)cc3)ncnc21` (stereo not drawn) [SAPTI012S019], the IC50 fell in the range of 1 to 10 µM. On the same count and under the same terms, in the case of `COc1cccc2c(N=S(C)(=O)c3ccc(C(N)=O)cc3)ccnc12` (stereo not drawn) [SAPTI012S020] it was 1 to 10 µM.

In the case of `COc1cccc2ncnc(N=S(C)(=O)c3ccc(B(O)O)cc3)c12` (stereo not drawn) [SAPTI012S039], the IC50 fell in the range of 1 to 10 µM. Regarding `COc1cc2ncnc(N=S(C)(=O)c3ccc(F)c(B(O)O)c3)c2cc1OC` (stereo not drawn) [SAPTI012S043], the half-maximal inhibitory concentration (IC50) fell in the range of 1 to 10 µM.

Staying with this test, now noted: Human ENPP-1 3 nM, 5 μM cGAMP, pH 7.4, 40 μM HSA, RT 3 hrs; read-out: IC50 values of compounds of the invention, <100 nM.
For the molecule `COc1cc2ncnc(N=S(C)(=O)c3ccc(B(O)O)cc3)c2cc1OC` (racemic) [SAPTI012S006], the IC50 was below 0.1 µM. On to `COc1cc2ncnc(N=S(C)(=O)c3cccc(B(O)O)c3)c2cc1OC` (stereo not drawn) [SAPTI012S005], for which the IC50 is below 0.1 µM.

For the molecule `COc1cc2ncnc(N=S(C)(=O)c3ccc(S(C)(=N)=O)cc3)c2cc1OC` (stereo not drawn) [SAPTI012S008], the half-maximal inhibitory concentration (IC50) is below 0.1 µM.

`COc1cc2ncnc(N=S(C)(=O)c3ccc(NC(=O)Nc4ccccc4)cc3)c2cc1OC` (stereo not drawn) [SAPTI012S009]: the IC50 is below 0.1 µM. `COc1cc2ncnc(N=S(C)(=O)c3cccc(NC(N)=O)c3)c2cc1OC` (stereo not drawn) [SAPTI012S011]: the IC50 is below 0.1 µM.

Consider `COc1cc2ncnc(N=S(C)(=O)c3ccc(CNC(N)=O)cc3)c2cc1OC` (stereo not drawn) [SAPTI012S015], for which the IC50 is below 0.1 µM. Still for that read-out and setting: in the case of `COc1cc2ncnc(N=S(C)(=O)c3ccc(C(N)=O)cc3)c2cc1OC` (stereo not drawn) [SAPTI012S016] it was below 0.1 µM; in that of `COc1cc2ncnc(N=S(C)(=O)c3cccc(C(=O)O)c3)c2cc1OC` (stereo not drawn) [SAPTI012S021], below 0.1 µM. On the same count and under the same terms, in the case of `COc1cc2ncnc(N=S(C)(=O)c3cccc(CNC(N)=O)c3)c2cc1OC` (stereo not drawn) [SAPTI012S024] it was below 0.1 µM.

With `COc1cc2ncnc(N=S(C)(=O)c3cccc4c(P(=O)(O)O)cccc34)c2cc1OC` (stereo not drawn) [SAPTI012S028], the IC50 was below 0.1 µM. The same measure, in the same setting: in the case of `COc1cc2ncnc(N=S(C)(=O)c3cccc4c(NC(N)=O)cccc34)c2cc1OC` (stereo not drawn) [SAPTI012S029] it was below 0.1 µM. On the same count and under the same terms, in the case of `COc1cc2ncnc(N=S(=O)(c3cccc(NC(N)=O)c3)C3CCCC3)c2cc1OC` (stereo not drawn) [SAPTI012S030] it was below 0.1 µM; in that of `COc1cc2ncnc(N=S(=O)(c3ccc(P(=O)(O)O)cc3)C(C)C)c2cc1OC` (stereo not drawn) [SAPTI012S031], below 0.1 µM; in that of `COc1cc2nccc(N=S(C)(=O)c3ccc(B(O)O)cc3)c2cc1OC` (stereo not drawn) [SAPTI012S036], below 0.1 µM. On the same count and under the same terms, in the case of `COc1nccc2c(N=S(C)(=O)c3ccc(B(O)O)cc3)ncnc12` (stereo not drawn) [SAPTI012S040] it was below 0.1 µM; in that of `COc1cc2ncnc(N=S(C)(=O)c3ccc(CC(N)=O)cc3)c2cc1OC` (stereo not drawn) [SAPTI012S042], below 0.1 µM.

Still in this test, the particulars now being: Human ENPP-1 3 nM, 5 μM cGAMP, pH 7.4, 40 μM HSA, RT 3 hrs; read-out: IC50 values of compounds of the invention, >10 uM.
As for `COc1cc2ncnc(N=S(C)(=O)c3ccc(NS(N)(=O)=O)cc3)c2cc1OC` (stereo not drawn) [SAPTI012S003, N-{4-[N-(6,7-dimethoxyquinazoline-4-)-S-methanesulfonimidoyl]phenyl}sulfuric diamide], the half-inhibitory concentration (IC50) was above 10 µM. Same read-out and setting: in the case of `COc1cccc2c(N=S(C)(=O)c3ccc(C(N)=O)cc3)ncnc12` (stereo not drawn) [SAPTI012S017] it was above 10 µM; in that of `COc1cc2ncnc(N=S(C)(=O)c3cccc(CN)c3)c2cc1OC` (stereo not drawn) [SAPTI012S023], above 10 µM. Take `COc1cc2ncnc(N=S3(=O)CCC(C)(C)c4cc(P(=O)(O)O)ccc43)c2cc1OC` (stereo not drawn) [SAPTI012S026]: the half-maximal inhibitory concentration (IC50) was above 10 µM.

Turning to `COc1cc2ncnc(N=S(=O)(CCCP(=O)(O)O)c3ccccc3)c2cc1OC` (stereo not drawn) [SAPTI012S027], the IC50 was above 10 µM. Same read-out and setting: in the case of `COc1cc2ncnc(N=S(=O)(c3cccc(NC(N)=O)c3)C(C)C)c2cc1OC` (stereo not drawn) [SAPTI012S033] it was above 10 µM; in that of `Cn1ccc2c(N=S(C)(=O)c3ccc(B(O)O)cc3)ncnc21` (stereo not drawn) [SAPTI012S037], above 10 µM; in that of `CS(=O)(=Nc1ncnc2ccc(F)cc12)c1ccc(B(O)O)cc1` (stereo not drawn) [SAPTI012S038], above 10 µM.

In the case of `CS(=O)(=Nc1ncnc2ccccc12)c1ccc(B(O)O)cc1` (stereo not drawn) [SAPTI012S041], the IC50 was above 10 µM.

The same test, now with this note: racemate and enantiomers separated by chiral HPLC; Human ENPP-1 3 nM, 5 μM cGAMP, pH 7.4, 40 μM HSA; read-out: IC50 value range (enantiomers of SAPTI012S006).
For the molecule `COc1cc2ncnc(N=S(C)(=O)c3ccc(B(O)O)cc3)c2cc1OC` (racemic) [SAPTI012S006], the IC50 is below 0.1 µM. Consider `COc1cc2ncnc(N=S(C)(=O)c3ccc(B(O)O)cc3)c2cc1OC` (single isomer, unassigned) [SAPTI012S006-E1], for which the IC50 was above 0.1 µM. For `COc1cc2ncnc(N=S(C)(=O)c3ccc(B(O)O)cc3)c2cc1OC` (single isomer, unassigned) [SAPTI012S006-E2], the half-inhibitory concentration (IC50) is below 0.1 µM.
